Measurements: PubChem BioAssay (NCI)
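Growth conditions: 96-well plates. Treatment: test compound, 48 hours, 5 concentrations. Analysis: linear interpolation between bracketing concentrations; unreached endpoints set to highest concentration. At the TGI there is no net growth.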

Key:
Experiment in all cases: NCI-60 cell line screen, 48 h
[1] = system: 786-0 renal
[2] = system: A498 renal
[3] = system: A549 NSCLC
[4] = system: ACHN renal
[5] = system: BT-549 breast
[6] = system: CAKI-1 renal
[7] = system: CCRF-CEM leukemia
[8] = system: COLO 205 colon
[9] = system: DU-145 prostate
[10] = system: EKVX NSCLC
[11] = system: HCC-2998 colon
[12] = system: HCT-116 colon
[13] = system: HCT-15 colon
[14] = system: HL-60(TB) leukemia
[15] = system: HOP-62 NSCLC
[16] = system: HOP-92 NSCLC
[17] = system: HS 578T breast
[18] = system: HT29 colon
[19] = system: IGROV1 ovarian
[20] = system: K-562 leukemia
[21] = system: KM12 colon
[22] = system: LOX IMVI melanoma
[23] = system: M14 melanoma
[24] = system: MALME-3M melanoma
[25] = system: MCF7 breast
[26] = system: MDA-MB-231 breast
[27] = system: MDA-MB-435
[28] = system: MDA-N
[29] = system: MOLT-4 leukemia
[30] = system: NCI-H226 lung
[31] = system: NCI-H23 lung
[32] = system: NCI-H460 lung
[33] = system: NCI-H522 lung
[34] = system: NCI/ADR-RES ovarian
[35] = system: OVCAR-3 ovarian
[36] = system: OVCAR-4 ovarian
[37] = system: OVCAR-5 ovarian
[38] = system: OVCAR-8 ovarian
[39] = system: PC-3 prostate
[40] = system: RPMI-8226 leukemia
[41] = system: RXF 393 renal
[42] = system: SF-268 CNS
[43] = system: SF-295 CNS
[44] = system: SF-539 CNS
[45] = system: SK-MEL-2 melanoma
[46] = system: SK-MEL-28 melanoma
[47] = system: SK-MEL-5 melanoma
[48] = system: SK-OV-3 ovarian
[49] = system: SN12C renal
[50] = system: SNB-19 CNS
[51] = system: SNB-75 CNS
[52] = system: SW-620 colon
[53] = system: T-47D breast
[54] = system: TK-10 renal
[55] = system: U251 CNS
[56] = system: UACC-257 melanoma
[57] = system: UACC-62 melanoma
[58] = system: UO-31 renal

Structure (SMILES): [N-]=[N+]=C(C(=O)OCC#CCOC(=O)C(=[N+]=[N-])S(=O)(=O)c1ccccc1)S(=O)(=O)c1ccccc1
- TGI [1]: > 10 µM
- TGI [2]: > 10 µM
- TGI [3]: > 10 µM
- TGI [4]: > 10 µM
- TGI [5]: > 10 µM
- TGI [6]: > 10 µM
- TGI [7]: > 10 µM
- TGI [8]: > 10 µM
- TGI [9]: > 10 µM
- TGI [10]: > 10 µM
- TGI [11]: > 10 µM
- TGI [12]: > 10 µM
- TGI [13]: > 10 µM
- TGI [14]: > 10 µM
- TGI [15]: > 10 µM
- TGI [16]: > 10 µM
- TGI [17]: > 10 µM
- TGI [18]: > 10 µM
- TGI [19]: > 10 µM
- TGI [20]: > 10 µM
- TGI [21]: > 10 µM
- TGI [22]: > 10 µM
- TGI [23]: > 10 µM
- TGI [24]: > 10 µM
- TGI [25]: > 10 µM
- TGI [26]: > 10 µM
- TGI [27]: > 10 µM
- TGI [28]: > 10 µM
- TGI [29]: > 10 µM
- TGI [30]: > 10 µM
- TGI [31]: > 10 µM
- TGI [32]: > 10 µM
- TGI [33]: > 10 µM
- TGI [34]: > 10 µM
- TGI [35]: > 10 µM
- TGI [36]: > 10 µM
- TGI [37]: > 10 µM
- TGI [38]: > 10 µM
- TGI [39]: > 10 µM
- TGI [40]: > 10 µM
- TGI [41]: > 10 µM
- TGI [42]: > 10 µM
- TGI [43]: > 10 µM
- TGI [44]: > 10 µM
- TGI [45]: > 10 µM
- TGI [46]: > 10 µM
- TGI [47]: > 10 µM
- TGI [48]: > 10 µM
- TGI [49]: > 10 µM
- TGI [50]: > 10 µM
- TGI [51]: > 10 µM
- TGI [52]: > 10 µM
- TGI [53]: > 10 µM
- TGI [54]: > 10 µM
- TGI [55]: > 10 µM
- TGI [56]: > 10 µM
- TGI [57]: > 10 µM
- TGI [58]: 0.519 µM

Structure (SMILES): CN1[C@@H]2CCCC[C@H]2N(C)P1(=O)C(O)/C=C/c1ccccc1 (stereo not given in full)
- TGI [1]: > 100 µM
- TGI [2]: > 100 µM
- TGI [3]: > 100 µM
- TGI [4]: > 100 µM
- TGI [5]: > 100 µM
- TGI [6]: > 100 µM
- TGI [7]: > 100 µM
- TGI [8]: > 100 µM
- TGI [9]: > 100 µM
- TGI [10]: > 100 µM
- TGI [11]: > 100 µM
- TGI [12]: > 100 µM
- TGI [13]: > 100 µM
- TGI [14]: > 100 µM
- TGI [15]: > 100 µM
- TGI [16]: > 100 µM
- TGI [17]: > 100 µM
- TGI [18]: > 100 µM
- TGI [19]: > 100 µM
- TGI [20]: > 100 µM
- TGI [21]: > 100 µM
- TGI [22]: > 100 µM
- TGI [23]: > 100 µM
- TGI [24]: > 100 µM
- TGI [25]: > 100 µM
- TGI [26]: > 100 µM
- TGI [27]: > 100 µM
- TGI [28]: > 100 µM
- TGI [29]: > 100 µM
- TGI [30]: > 100 µM
- TGI [31]: > 100 µM
- TGI [32]: > 100 µM
- TGI [33]: > 100 µM
- TGI [34]: > 100 µM
- TGI [35]: > 100 µM
- TGI [36]: > 100 µM
- TGI [37]: > 100 µM
- TGI [38]: > 100 µM
- TGI [39]: > 100 µM
- TGI [40]: > 100 µM
- TGI [41]: > 100 µM
- TGI [42]: > 100 µM
- TGI [43]: > 100 µM
- TGI [45]: > 100 µM
- TGI [46]: > 100 µM
- TGI [47]: > 100 µM
- TGI [48]: > 100 µM
- TGI [49]: > 100 µM
- TGI [50]: > 100 µM
- TGI [51]: > 100 µM
- TGI [52]: > 100 µM
- TGI [53]: > 100 µM
- TGI [54]: > 100 µM
- TGI [55]: > 100 µM
- TGI [56]: > 100 µM
- TGI [57]: > 100 µM
- TGI [58]: > 100 µM
